Data: ChEMBL document CHEMBL1201862, “PubChem BioAssay data set” (2004)
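All cell lines were grown in 96-well plates and treated with compound for 48 hours. At the GI50, growth is halved.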 Active and inactive are the calls of the source. No stated cut-off is given here; in the data, active = GI50 up to about 1.1 µM and inactive = higher.

Assays:
Assay in all cases: NCI-60 cell line screen, 48 h
MDA-N = system: MDA-N
BT-549 = system: BT-549
RPMI-8226 = system: RPMI-8226
OVCAR-5 = system: OVCAR-5
HCC 2998 = system: HCC 2998
MOLT-4 = system: MOLT-4
NCI-H23 = system: NCI-H23
UACC-257 = system: UACC-257
Malme-3M = system: Malme-3M
OVCAR-8 = system: OVCAR-8
NCI-H460 = system: NCI-H460
PC-3 = system: PC-3
HOP-92 = system: HOP-92
SK-OV-3 = system: SK-OV-3
EKVX = system: EKVX
SK-MEL-28 = system: SK-MEL-28
Hs-578T = system: Hs-578T
SF-295 = system: SF-295
SNB-75 = system: SNB-75
HL-60 = system: HL-60

**Q.** Which GI50 (MDA-N) does the source give for `Cc1ccc(Nc2nnc(-c3ccc4c(c3)OCO4)o2)c(C)c1` here?
**A.** > 100 µM (inactive)

**Q.** And the GI50 (BT-549)?
**A.** > 100 µM (inactive)

**Q.** And the GI50 (RPMI-8226)?
**A.** 54 µM (inactive)

**Q.** And the GI50 (OVCAR-5)?
**A.** > 100 µM (inactive)

**Q.** What about the GI50 (HCC 2998) of the same compound?
**A.** > 100 µM (inactive)

**Q.** What about the GI50 (MOLT-4) of the same compound?
**A.** 1.71 µM (inactive)

**Q.** And the GI50 (NCI-H23)?
**A.** > 100 µM (inactive)

**Q.** What about the GI50 (UACC-257) of the same compound?
**A.** > 100 µM (inactive)

**Q.** And the GI50 (Malme-3M)?
**A.** > 100 µM (inactive)

**Q.** What about the GI50 (OVCAR-8) of the same compound?
**A.** 55.1 µM (inactive)

**Q.** And the GI50 (NCI-H460)?
**A.** > 100 µM (inactive)

**Q.** What about the GI50 (PC-3) of the same compound?
**A.** 50.1 µM (inactive)

**Q.** What about the GI50 (HOP-92) of the same compound?
**A.** 41.9 µM (inactive)

**Q.** What about the GI50 (SK-OV-3) of the same compound?
**A.** > 100 µM (inactive)

**Q.** What about the GI50 (EKVX) of the same compound?
**A.** 82 µM (inactive)

**Q.** What about the GI50 (SK-MEL-28) of the same compound?
**A.** > 100 µM (inactive)

**Q.** And the GI50 (Hs-578T)?
**A.** > 100 µM (inactive)

**Q.** And the GI50 (SF-295)?
**A.** > 100 µM (inactive)

**Q.** What about the GI50 (SNB-75) of the same compound?
**A.** > 100 µM (inactive)

**Q.** With `C#CCOC(=O)C(=[N+]=[N-])C(=O)CC(C)C` as the compound, how does the GI50 (MDA-N) read?
**A.** > 10 µM (inactive)

**Q.** What about the GI50 (BT-549) of the same compound?
**A.** > 10 µM (inactive)

**Q.** And the GI50 (RPMI-8226)?
**A.** > 10 µM (inactive)

**Q.** What about the GI50 (OVCAR-5) of the same compound?
**A.** > 10 µM (inactive)

**Q.** And the GI50 (HL-60)?
**A.** > 10 µM (inactive)

**Q.** What about the GI50 (HCC 2998) of the same compound?
**A.** > 10 µM (inactive)

**Q.** What about the GI50 (MOLT-4) of the same compound?
**A.** > 10 µM (inactive)

**Q.** What about the GI50 (NCI-H23) of the same compound?
**A.** > 10 µM (inactive)

**Q.** And the GI50 (UACC-257)?
**A.** > 10 µM (inactive)

**Q.** What about the GI50 (Malme-3M) of the same compound?
**A.** > 10 µM (inactive)

**Q.** And the GI50 (OVCAR-8)?
**A.** > 10 µM (inactive)

**Q.** And the GI50 (NCI-H460)?
**A.** > 10 µM (inactive)

**Q.** What about the GI50 (PC-3) of the same compound?
**A.** > 10 µM (inactive)

**Q.** And the GI50 (HOP-92)?
**A.** > 10 µM (inactive)

**Q.** And the GI50 (SK-OV-3)?
**A.** > 10 µM (inactive)

**Q.** And the GI50 (EKVX)?
**A.** > 10 µM (inactive)

**Q.** And the GI50 (SK-MEL-28)?
**A.** > 10 µM (inactive)

**Q.** And the GI50 (Hs-578T)?
**A.** > 10 µM (inactive)

**Q.** And the GI50 (SF-295)?
**A.** > 10 µM (inactive)

**Q.** Which GI50 (MDA-N) does the source give for `CC[C@@H]1CN(C)[C@H]2Cc3c([nH]c4ccccc34)C(=O)C[C@H]1C2C(=O)OC` (stereo not given in full) here?
**A.** > 100 µM (inactive)

**Q.** And the GI50 (BT-549)?
**A.** > 100 µM (inactive)

**Q.** What about the GI50 (RPMI-8226) of the same compound?
**A.** > 88.5 µM (inactive)

**Q.** And the GI50 (OVCAR-5)?
**A.** > 100 µM (inactive)

**Q.** And the GI50 (HL-60)?
**A.** > 89.3 µM (inactive)

**Q.** And the GI50 (HCC 2998)?
**A.** > 100 µM (inactive)

**Q.** What about the GI50 (MOLT-4) of the same compound?
**A.** > 93.8 µM (inactive)

**Q.** And the GI50 (NCI-H23)?
**A.** > 100 µM (inactive)

**Q.** What about the GI50 (UACC-257) of the same compound?
**A.** > 100 µM (inactive)

**Q.** What about the GI50 (Malme-3M) of the same compound?
**A.** > 100 µM (inactive)

**Q.** And the GI50 (OVCAR-8)?
**A.** > 100 µM (inactive)

**Q.** And the GI50 (NCI-H460)?
**A.** > 100 µM (inactive)

**Q.** And the GI50 (PC-3)?
**A.** > 100 µM (inactive)

**Q.** And the GI50 (HOP-92)?
**A.** > 100 µM (inactive)

**Q.** And the GI50 (SK-OV-3)?
**A.** > 100 µM (inactive)

**Q.** What about the GI50 (EKVX) of the same compound?
**A.** > 100 µM (inactive)

**Q.** And the GI50 (SK-MEL-28)?
**A.** > 100 µM (inactive)

**Q.** And the GI50 (Hs-578T)?
**A.** > 100 µM (inactive)

**Q.** What about the GI50 (SF-295) of the same compound?
**A.** > 54.2 µM (inactive)

**Q.** What about the GI50 (SNB-75) of the same compound?
**A.** > 91.4 µM (inactive)

**Q.** `Nc1nc(Cl)c(N)c(NCC2(CO)CCC(OCc3ccccc3)C2)n1` (stereo not given) was tested. Which GI50 (MDA-N) did it give?
**A.** > 100 µM (inactive)

**Q.** What about the GI50 (BT-549) of the same compound?
**A.** 61.9 µM (inactive)

**Q.** What about the GI50 (OVCAR-5) of the same compound?
**A.** > 100 µM (inactive)

**Q.** And the GI50 (HCC 2998)?
**A.** > 100 µM (inactive)

**Q.** What about the GI50 (MOLT-4) of the same compound?
**A.** 31.7 µM (inactive)

**Q.** And the GI50 (NCI-H23)?
**A.** > 100 µM (inactive)

**Q.** What about the GI50 (UACC-257) of the same compound?
**A.** 0.522 µM (active)

**Q.** What about the GI50 (Malme-3M) of the same compound?
**A.** 39.5 µM (inactive)

**Q.** What about the GI50 (OVCAR-8) of the same compound?
**A.** > 100 µM (inactive)

**Q.** And the GI50 (NCI-H460)?
**A.** > 100 µM (inactive)

**Q.** And the GI50 (PC-3)?
**A.** > 100 µM (inactive)

**Q.** What about the GI50 (HOP-92) of the same compound?
**A.** > 100 µM (inactive)

**Q.** And the GI50 (SK-OV-3)?
**A.** > 100 µM (inactive)

**Q.** What about the GI50 (EKVX) of the same compound?
**A.** 0.931 µM (active)

**Q.** What about the GI50 (SK-MEL-28) of the same compound?
**A.** > 100 µM (inactive)

**Q.** And the GI50 (Hs-578T)?
**A.** > 100 µM (inactive)

**Q.** And the GI50 (SF-295)?
**A.** 4.9 µM (inactive)

**Q.** And the GI50 (SNB-75)?
**A.** > 100 µM (inactive)

**Q.** Which results are given for `O=C(O)C(Br)C(Br)C(=O)O` (stereo not given)?
**A.** GI50 (MDA-N): > 100 µM (inactive); GI50 (BT-549): > 100 µM (inactive); GI50 (RPMI-8226): > 100 µM (inactive); GI50 (OVCAR-5): > 100 µM (inactive); GI50 (HL-60): > 100 µM (inactive); GI50 (HCC 2998): > 100 µM (inactive); GI50 (NCI-H23): > 100 µM (inactive); GI50 (UACC-257): > 100 µM (inactive); GI50 (Malme-3M): > 100 µM (inactive); GI50 (OVCAR-8): > 100 µM (inactive); GI50 (NCI-H460): > 100 µM (inactive); GI50 (PC-3): > 100 µM (inactive); GI50 (HOP-92): > 100 µM (inactive); GI50 (SK-OV-3): > 100 µM (inactive); GI50 (EKVX): > 100 µM (inactive); GI50 (SK-MEL-28): > 100 µM (inactive); GI50 (Hs-578T): > 100 µM (inactive); GI50 (SF-295): > 100 µM (inactive); GI50 (SNB-75): > 100 µM (inactive)

**Q.** `O=c1c2ccccc2[nH]c(=S)n1-c1ccc(/N=N/c2cccc3cc(O)ccc23)cc1` was tested. Which GI50 (MDA-N) did it give?
**A.** > 100 µM (inactive)

**Q.** And the GI50 (BT-549)?
**A.** > 100 µM (inactive)

**Q.** What about the GI50 (RPMI-8226) of the same compound?
**A.** > 100 µM (inactive)

**Q.** And the GI50 (OVCAR-5)?
**A.** 74.1 µM (inactive)

**Q.** And the GI50 (HL-60)?
**A.** 22.3 µM (inactive)

**Q.** What about the GI50 (HCC 2998) of the same compound?
**A.** > 100 µM (inactive)

**Q.** And the GI50 (MOLT-4)?
**A.** > 100 µM (inactive)

**Q.** What about the GI50 (NCI-H23) of the same compound?
**A.** > 100 µM (inactive)

**Q.** What about the GI50 (UACC-257) of the same compound?
**A.** > 100 µM (inactive)

**Q.** What about the GI50 (Malme-3M) of the same compound?
**A.** > 100 µM (inactive)

**Q.** What about the GI50 (OVCAR-8) of the same compound?
**A.** > 100 µM (inactive)

**Q.** What about the GI50 (NCI-H460) of the same compound?
**A.** > 100 µM (inactive)

**Q.** And the GI50 (PC-3)?
**A.** 35.1 µM (inactive)

**Q.** What about the GI50 (HOP-92) of the same compound?
**A.** > 100 µM (inactive)

**Q.** What about the GI50 (SK-OV-3) of the same compound?
**A.** > 100 µM (inactive)

**Q.** What about the GI50 (EKVX) of the same compound?
**A.** > 100 µM (inactive)

**Q.** And the GI50 (SK-MEL-28)?
**A.** > 100 µM (inactive)

**Q.** What about the GI50 (Hs-578T) of the same compound?
**A.** > 100 µM (inactive)

**Q.** And the GI50 (SF-295)?
**A.** > 100 µM (inactive)

**Q.** What about the GI50 (SNB-75) of the same compound?
**A.** > 100 µM (inactive)

**Q.** What does the source list for `CC(C)(C)c1cc2c(O)c(c1)Cc1cc(C(C#N)(Cc3ccc4ccccc4c3)Cc3ccc4ccccc4c3)cc(c1O)Cc1cc(C(C)(C)C)cc(c1O)Cc1cc(C(C#N)(Cc3ccc4ccccc4c3)Cc3ccc4ccccc4c3)cc(c1O)C2`?
**A.** GI50 (MDA-N): > 100 µM (inactive); GI50 (BT-549): > 100 µM (inactive); GI50 (RPMI-8226): > 100 µM (inactive); GI50 (OVCAR-5): > 100 µM (inactive); GI50 (HL-60): > 100 µM (inactive); GI50 (HCC 2998): > 100 µM (inactive); GI50 (MOLT-4): > 100 µM (inactive); GI50 (NCI-H23): > 100 µM (inactive); GI50 (UACC-257): > 100 µM (inactive); GI50 (Malme-3M): > 100 µM (inactive); GI50 (OVCAR-8): > 100 µM (inactive); GI50 (NCI-H460): > 100 µM (inactive); GI50 (PC-3): > 100 µM (inactive); GI50 (HOP-92): > 100 µM (inactive); GI50 (SK-OV-3): > 100 µM (inactive); GI50 (EKVX): > 100 µM (inactive); GI50 (SK-MEL-28): > 100 µM (inactive); GI50 (Hs-578T): > 100 µM (inactive); GI50 (SF-295): > 100 µM (inactive); GI50 (SNB-75): > 100 µM (inactive)
